Measured values from patent US7439265B2, “Irciniastatins a and b” (Arizona Board of Regents, a body corporate of the State of …, priority 2003, dated 2008).
Values after ≈ are worked out from the molar mass of the structure shown.

What was measured:
[1] = test system: BXPC-3 pancreas cancer cell line; assay: Sulforhodamine B cancer cell growth inhibition, BXPC-3; format: cell-based, human; details: 48 hours
Description: (§1) Inhibition of human cancer cell growth was assessed using the National Cancer Institute's standard sulforhodamine B assay as previously described. Briefly, cells in a 5% fetal bovine serum/RPMI1640 medium solution were inoculated in 96-well plates and incubated for 24 hours Serial dilutions of the compounds were then added. After 48 hours, the plates were fixed with trichloroacetic acid, stained with sulforhodamine B and read with an automated microplate reader. A growth inhibition of 50% (GI50 of the drug concentration causing a 50% reduction in the net protein increase) was calculated from optical density data with Immunosoft software. Inhibition of the mouse leukemia P388 cells was assessed in a 10% horse serum/Fisher medium solution for 24 hours, followed by a 48 hour incubation with serial dilutions of the compounds. Cell growth inhibition (ED50) was then calculated using a Z1 Beckman/Coulter particle counter. (Monks, A., et al., Feasibility of high-flux anticancer screen using a diverse panel of cultured human tumor cell lines, J Natl. Cancer Inst. 1991, 83, 757-766.)

[2] = test system: DU-145 prostate cancer cell line; assay: Sulforhodamine B cancer cell growth inhibition, DU-145; format: cell-based, human; details: 48 hours
Description: as §1

[3] = test system: P388 lymphocytic leukemia cells; assay: Inhibition of mouse leukemia P388 cell growth; format: cell-based; details: P388 murine leukemia, in Table 2
Description: as §1

[4] = test system: MCF-7 breast cancer cell line; assay: Sulforhodamine B cancer cell growth inhibition, MCF-7; format: cell-based, human; details: 48 hours
Description: as §1

[5] = test system: KM20L2 colon cancer cell line; assay: Sulforhodamine B cancer cell growth inhibition, KM20L2; format: cell-based, human; details: 48 hours
Description: as §1

[6] = test system: NCI-H460 lung cancer cell line; assay: Sulforhodamine B cancer cell growth inhibition, NCI-H460; format: cell-based, human; details: for GI50: NCI-H460 lung, 48 hours
Description: as §1

[7] = test system: murine P388 leukemia cell line and six human cancer cell lines; assay: Cancer cell growth inhibition, P388 plus minipanel of human cancer cell lines (summary); format: cell-based; details: against P388, BXPC-3, MCF-7 and SF268
Description: as §1

[8] = test system: SF268 CNS cancer cell line; assay: Sulforhodamine B cancer cell growth inhibition, SF268; format: cell-based, human; details: 48 hours
Description: as §1

[9] = test system: Neisseria gonorrhoeae ATCC 49226; assay: Broth microdilution antibacterial susceptibility; format: cell-based
Description: (§2) Ircinastatin A (1) was evaluated against the bacteria Stenotrophomonas maltophilia ATCC 13637, Micrococcus luteus Presque Isle 456, Staphylococcus aureus ATCC 29213, Escherichia coli ATCC 25922, Enterobacter cloacae ATCC 13047, Enterococcus faecalis ATCC 29212, Streptococcus pneumoniae ATCC 6303 and Neisseria gonorrhoeae ATCC 49226, and the fungi Candida albicans ATCC 90028 and Cryptococcus neoformans ATCC 90112, following established broth microdilution susceptibility assays. The minimum inhibitory concentration was defined as the lowest concentration of irciniastatin A that inhibited all visible growth of the test organism (optically clear). Assays were repeated on separate days. (National Committee for Clinical Laboratory Standards. Methods for Dilution Antimicrobial Susceptibility Tests for Bacteria that Grow Aerobically. Approved Standard M7-A5. Wayne, Pa.: NCCLS, 2000; National Committee for Clinical Laboratory Standards. Reference Method for Broth Dilution Antifungal Susceptibility Testing of Yeasts. Approved Standard M27-A. Wayne, Pa.: NCCLS, 1997.)

[10] = test system: HUVEC (human umbilical vascular endothelial cells); assay: Growth inhibition of normal endothelial cells (HUVEC); format: cell-based
[11] = test system: Cryptococcus neoformans ATCC 90112; assay: Broth microdilution antifungal susceptibility; format: cell-based
Description: as §2

Row | Structure (SMILES) | GI50 [1] [ng/mL] | GI50 [2] [ng/mL] | GI50 [3] [ng/mL] | GI50 [4] [ng/mL] | GI50 [5] [ng/mL] | GI50 [6] [ng/mL] | cell growth inhibition of irciniastatin B (2) relative to irciniastatin A (1) [7] | GI50 [8] [ng/mL] | activity of irciniastatin A relative to irciniastatin B ([6]; NCI-H460 lung cancer cells) | minimum inhibitory concentration [9] [ng/mL] | GI50 [10] [ng/mL] | minimum inhibitory concentration [11] [ng/mL]
1 | C=C(C)C[C@H](OC)[C@H](O)C(=O)N[C@@H](OC)[C@@H]1CC(=O)C(C)(C)[C@@H](C[C@H](O)[C@@H](C)[C@H]2Cc3c(C)c(O)cc(O)c3C(=O)O2)O1 [Irciniastatin B, irciniastatin B] | 0.73 (≈ 1.2 nM) | 1.6 (≈ 2.63 nM) | 6 (≈ 9.87 nM) | 0.5 (≈ 0.823 nM) | 2.1 (≈ 3.46 nM) | 1.2 (≈ 1.97 nM) | ten times stronger | 0.66 (≈ 1.09 nM) |  |  |  | 
2 | C=C(C)CC(OC)[C@H](O)C(=O)N[C@@H](OC)[C@@H]1C[C@@H](O)C(C)(C)[C@@H](C[C@H](O)[C@@H](C)[C@H]2Cc3c(C)c(O)cc(O)c3C(=O)O2)O1 (stereo partly shown) [Irciniastatin A, irciniastatin A] | 3.8 (≈ 6.23 nM) | 2.4 (≈ 3.94 nM) | 4.13 (≈ 6.77 nM) | 3.2 (≈ 5.25 nM) | 2.7 (≈ 4.43 nM) | <0.1 |  | 3.4 (≈ 5.58 nM) | at least 10 times | 64000 (≈ 105000 nM) | <0.5 | 16000 (≈ 26200 nM)
